The results in this text go back to PubChem BioAssay (NCI).

Test systems include A498 renal; HCT-116 colon; HOP-92 NSCLC; HS 578T breast; KM12 colon; MDA-MB-231 breast; NCI-H460 lung; RPMI-8226 leukemia; SF-539 CNS; SK-OV-3 ovarian; SN12C renal; SR leukemia; SNB-75 CNS.
What all share (test): inhibition of tumour cell growth, NCI panel, 48 h

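Method: 48-hour compound exposure of cells in 96-well plates, five concentrations, linear interpolation of endpoints. TGI denotes the concentration required for complete inhibition of growth.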

In the case of `c1cc2c(c(NC3=NCCO3)c1)CCC2`, the TGI in the assay on A498 renal, with HCT-116 colon, in the assay with HOP-92 NSCLC, with HS 578T breast, with KM12 colon and in the assay with MDA-MB-231 breast was greater than 100 µM throughout. Further, the TGI in the assay with NCI-H460 lung, with RPMI-8226 leukemia, in the assay with SF-539 CNS, in the assay on SK-OV-3 ovarian, in the assay with SN12C renal and in the assay with SR leukemia was greater than 100 µM throughout.
Turning to `O=c1[nH]nc(Cc2ccccc2)n1/N=C\c1ccccc1`, the TGI in the assay with A498 renal, in the assay with HCT-116 colon, with HOP-92 NSCLC, in the assay on HS 578T breast, in the assay on KM12 colon and in the assay on MDA-MB-231 breast was greater than 100 µM in each case. In addition, the TGI in the assay with NCI-H460 lung, in the assay on RPMI-8226 leukemia, with SF-539 CNS, in the assay on SN12C renal, with SNB-75 CNS and with SR leukemia was greater than 100 µM each time.
For the compound `COC(=O)[C@@H]1CN(C(C)=O)C(=O)N1C(=O)OCc1ccccc1`, the TGI in the assay with A498 renal, with HCT-116 colon, with HOP-92 NSCLC, in the assay with HS 578T breast, with KM12 colon and in the assay on MDA-MB-231 breast was greater than 100 µM throughout. Moreover, the TGI with NCI-H460 lung, with RPMI-8226 leukemia, with SF-539 CNS, with SK-OV-3 ovarian, in the assay with SN12C renal and in the assay on SR leukemia was greater than 100 µM each time.
For the compound `COc1ccc(/C(O)=C/c2nc3cccnc3nc2/C=C(\O)c2ccc(OC)cc2)cc1`, the TGI with A498 renal was greater than 100 µM; in the assay with HCT-116 colon, 52.3 µM; in the assay on HOP-92 NSCLC, greater than 100 µM; in the assay with HS 578T breast, 43.7 µM; in the assay with KM12 colon, greater than 100 µM; in the assay on MDA-MB-231 breast, 31.2 µM. For the same compound, the TGI was 32.6 µM in the assay on NCI-H460 lung; greater than 100 µM in the assay on RPMI-8226 leukemia; 25.4 µM in the assay on SF-539 CNS; 31.7 µM in the assay on SK-OV-3 ovarian; 42.5 µM in the assay on SN12C renal; 51.2 µM in the assay on SR leukemia.
As to `CCN(CC)c1ccc2cc(C(=O)Nc3ccccc3)c(=N)oc2c1`, the TGI in the assay with HCT-116 colon, in the assay with HOP-92 NSCLC, in the assay on HS 578T breast, in the assay with KM12 colon, with MDA-MB-231 breast and in the assay with NCI-H460 lung was greater than 100 µM each time. Also, the TGI in the assay with RPMI-8226 leukemia, in the assay on SF-539 CNS, in the assay on SK-OV-3 ovarian, in the assay on SN12C renal, in the assay on SNB-75 CNS and in the assay on SR leukemia was greater than 100 µM each time.
For the compound `COc1ccc(OCc2ccc3nc(-c4ccccc4)c(Cl)nc3c2)cc1`, the TGI in the assay with A498 renal was 81.2 µM; in the assay on HCT-116 colon, greater than 100 µM; with HOP-92 NSCLC, 46.7 µM; in the assay on HS 578T breast, greater than 100 µM; in the assay on KM12 colon it was greater than 100 µM; in the assay on MDA-MB-231 breast, 37.9 µM. For the same compound, the TGI with NCI-H460 lung is greater than 100 µM; in the assay with RPMI-8226 leukemia it was greater than 100 µM; in the assay with SF-539 CNS, 42.3 µM; in the assay with SN12C renal, greater than 100 µM; in the assay with SNB-75 CNS it was greater than 100 µM; in the assay on SR leukemia it was greater than 100 µM.
Consider `CC1=C/C(=N\O)C(C(O)(C(F)(F)F)C(F)(F)F)C(C)(C)C1` (stereo not given), for which the TGI with A498 renal, in the assay on HCT-116 colon, in the assay on HOP-92 NSCLC, with HS 578T breast, with KM12 colon and with MDA-MB-231 breast was greater than 10 µM each time. For the same compound, the TGI in the assay with NCI-H460 lung, with SF-539 CNS, in the assay on SK-OV-3 ovarian, in the assay with SN12C renal, in the assay with SNB-75 CNS and in the assay with SR leukemia was greater than 10 µM in each case.
As to `C=CCSC1=N/C(=C\c2cccs2)C(=O)N1CC=C`, the TGI in the assay with A498 renal is 95.3 µM; with HCT-116 colon, greater than 100 µM; with HOP-92 NSCLC it was 57 µM; in the assay with HS 578T breast, greater than 100 µM; in the assay with KM12 colon it was greater than 100 µM; in the assay on MDA-MB-231 breast, greater than 100 µM. Also, the TGI with NCI-H460 lung is greater than 100 µM; in the assay with RPMI-8226 leukemia it was 91.3 µM; with SF-539 CNS it was greater than 100 µM; in the assay with SK-OV-3 ovarian, greater than 100 µM; with SN12C renal, greater than 100 µM; in the assay on SR leukemia, greater than 100 µM.
On to `COC(CC1(/C=C/O[Si](C(C)C)(C(C)C)C(C)C)C(=O)N(C)c2ccccc21)OC` (stereo not given), for which the TGI was greater than 100 µM in the assay on A498 renal; greater than 100 µM with HCT-116 colon; greater than 100 µM in the assay on HOP-92 NSCLC; 45.2 µM in the assay on HS 578T breast; greater than 100 µM in the assay on KM12 colon; greater than 100 µM in the assay with MDA-MB-231 breast. The TGI in the assay on NCI-H460 lung, with RPMI-8226 leukemia, in the assay on SK-OV-3 ovarian, with SN12C renal, with SNB-75 CNS and in the assay on SR leukemia was greater than 100 µM each time.
Take `CCOC(=O)c1c(Cl)nc2ccccc2c1N=[N+]=[N-]`: the TGI in the assay on A498 renal was greater than 100 µM; with HCT-116 colon, 43 µM; in the assay with HOP-92 NSCLC, 59.5 µM; in the assay with HS 578T breast it was 77.8 µM; in the assay with KM12 colon, 31.5 µM; in the assay on MDA-MB-231 breast, 30.1 µM. Further, the TGI is 63.6 µM in the assay on NCI-H460 lung; greater than 100 µM with RPMI-8226 leukemia; 37.7 µM in the assay on SF-539 CNS; greater than 100 µM in the assay with SK-OV-3 ovarian; 30.7 µM in the assay with SN12C renal; greater than 100 µM in the assay on SR leukemia.
For the compound `COc1cc(S(=O)(=O)Nc2ccc(-c3csc(N)n3)cc2)ccc1Cl`, the TGI was 59.2 µM with A498 renal; 29.7 µM in the assay with HCT-116 colon; 39.5 µM in the assay with HOP-92 NSCLC; greater than 100 µM in the assay on HS 578T breast; 31.4 µM in the assay on MDA-MB-231 breast; 65.1 µM in the assay on RPMI-8226 leukemia. Moreover, the TGI is greater than 100 µM with SF-539 CNS, 38.5 µM with SN12C renal, 39.2 µM in the assay with SNB-75 CNS and 48.4 µM in the assay on SR leukemia.
